# Experimental data taken from publication PMC8226850, “Thermal Inactivation Kinetics of Kudzu (Pueraria lobata) Polyphenol Oxidase and the Influence of Food Constituents” (Foods, 2021).
# System: T1, pPPO (purified kudzu polyphenol oxidase)
# T1 construct: gene PPO; single prominent SDS-PAGE band approx. 21 kDa
# Assay: UV-visible spectrophotometry at […] nm, Lineweaver-Burk
# Assay type: biochemical, Pueraria montana var. lobata
# Conditions: catechol oxidation; activity assay in McIlvaine buffer pH 5.0, 25 °C
smiles,measurement,value
Oc1ccccc1O [catechol],Km,23.5 mM
